Measured values as given in ChEMBL document CHEMBL4765481, “Sialyltransferase Inhibitors Suppress Breast Cancer Metastasis” (J Med Chem, 2021).
Active and inactive are the calls of the source. The rule behind the calls is not given here.

Tests used:
[1] = target: T1, CMP-N-acetylneuraminate-beta-1,4-galactoside alpha-2,3-sialyltransferase (Rattus norvegicus, UniProt Q02734); experiment: Inhibition of rat alpha-2,3-N-ST3GALIII assessed as reduction in sialylated-product formation using Gal-beta1-4Glc and CMP-NeuSAc incubated for 1.5 hrs by reverse-phase HPLC analysis
T1 sequence (Q02734 whole entry): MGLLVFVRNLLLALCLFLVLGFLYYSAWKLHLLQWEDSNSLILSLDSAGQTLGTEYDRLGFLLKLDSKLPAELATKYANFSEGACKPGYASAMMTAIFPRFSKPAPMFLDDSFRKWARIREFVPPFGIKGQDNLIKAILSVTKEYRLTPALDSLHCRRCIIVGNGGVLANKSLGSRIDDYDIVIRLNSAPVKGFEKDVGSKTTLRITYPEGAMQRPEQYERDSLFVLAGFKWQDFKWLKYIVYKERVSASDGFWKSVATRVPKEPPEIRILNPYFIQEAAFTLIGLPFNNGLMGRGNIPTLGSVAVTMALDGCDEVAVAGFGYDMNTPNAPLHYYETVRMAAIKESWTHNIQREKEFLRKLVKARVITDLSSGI

[2] = target: T2, Sialyltransferase ST3Gal-I (Rattus norvegicus) (UniProt Q6H8N0); experiment: Inhibition of rat alpha-2,3-O-ST3GALI assessed as reduction in sialylated-product formation at 1 mM using p-nitrophenyl T-antigen and CMP-NeuSAc incubated for 15 mins by reverse-phase HPLC analysis relative to control
T2 sequence (whole entry): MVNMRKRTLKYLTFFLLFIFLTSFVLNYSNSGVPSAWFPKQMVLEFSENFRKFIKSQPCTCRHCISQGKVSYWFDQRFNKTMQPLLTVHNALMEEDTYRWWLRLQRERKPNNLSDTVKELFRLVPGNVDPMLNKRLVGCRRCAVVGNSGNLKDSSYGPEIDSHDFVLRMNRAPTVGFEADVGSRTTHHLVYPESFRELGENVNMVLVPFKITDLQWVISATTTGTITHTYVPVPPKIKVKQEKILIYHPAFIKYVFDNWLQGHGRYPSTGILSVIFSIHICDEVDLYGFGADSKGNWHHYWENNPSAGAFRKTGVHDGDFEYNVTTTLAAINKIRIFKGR

[3] = Selectivity ratio of IC50 for of inhibition of rat alpha-2,3-O-ST3GALI to IC50 for inhibition of human alpha-2,6-ST6GAL1
[4] = test system: MDA-MB-231; experiment: Inhibition of Sialyltransferase in human MDA-MB-231 cells assessed as suppression of sialylation of integrin subunit beta1/beta3/beta4/beta5 at 10 to 20 um after 48 hrs by Western blot analysis; format: cell-based; details: dose 10-20 µM
[5] = test system: MDA-MB-231; experiment: Antitumor activity against luciferase-tagged human MDA-MB-231 cells xenografted in BALB/c mouse assessed as induction of tumor suppression at 10 mg/kg/3 days, ip measured after 8 weeks; format: functional, organism-based
[6] = test system: MDA-MB-231; experiment: Inhibition of Sialyltransferase in human MDA-MB-231 cells assessed as reduction in NFkappaB Ser536 phosphorylation level at 10 to 20 uM incubated for 48 hrs by immunoblot analysis; format: cell-based; details: dose 10-20 µM

C[C@H](CCC(=O)OCCOCCOCCN=[N+]=[N-])[C@H]1CC[C@H]2[C@@H]3CC[C@@H]4C[C@H](OC(=O)[C@H](CC(=O)O)Nc5ccc([N+](=O)[O-])c6nonc56)CC[C@]4(C)[C@H]3CC[C@]12C
IC50 [1]: 1740 nM
inhibition [2]: 60%
Ratio IC50 [3]: > 139
inhibition [4]: Active
Activity [5]: Active
inhibition [6]: Active
